From ChEMBL document CHEMBL5131467, “Multivalent peptide dendrimers inhibit the fusion of viral-cellular membranes and the cellular NF-κB signaling pathway” (Eur J Med Chem, 2022)
Active and inactive are the calls of the source. No cut-off for these calls is given here. Where a SMILES comes first, the peptide text is derived from it. Bridges are numbered along the chain shown (N, C = ends). Roman numbers before positions name the chains, in order. Side-chain parts run from the residue outwards. The star is where a group is joined. Acetyl(2-naphthyl) = O=C(Cc1ccc2ccccc2c1)*

What was measured:
Influenza A virus [1] = test: Antiviral activity against Influenza A virus (A/Puerto Rico/8/1934(H1N1)) infected in MDCK cells assessed as reduction in virus induced cytopathic effect pretreated with compound incubated for 1 hrs by MTT assay; format: functional, organism-based
[2] = Cytotoxicity against MDCK cells by CCK-8 assay; format: toxicity, cell-based, Canis lupus familiaris; details: dog
Influenza A virus [3] = test: Antiviral activity against Influenza A virus (A/Puerto Rico/8/1934(H1N1)) infected in MDCK cells assessed as reduction in virus induced cytopathic effect pre-treated with virus followed by cell infection for 1 hr by MTT assay; format: functional, organism-based
Influenza A virus [4] = test: Antiviral activity against Influenza A virus (A/Puerto Rico/8/1934(H1N1)) infected in MDCK cells assessed as reduction in virus induced cytopathic effect after infection incubated for 1 hr by MTT assay; format: functional, organism-based
Influenza A virus [5] = test: Antiviral activity against Influenza A virus (A/Puerto Rico/8/1934(H1N1)) infected in MDCK cells assessed as reduction in virus induced cytopathic effect during infection incubated for 1 hr by MTT assay; format: functional, organism-based
[6] = Cytotoxicity against MDCK cells incubated for 1 hr by MTT assay; format: toxicity, cell-based, Canis lupus familiaris; details: dog
[7] = Selectivity index, ratio of CC50 for MDCK cells to IC50 antiviral activity against Influenza A virus (A/Puerto Rico/8/1934(H1N1)) infected in MDCK cells assessed as reduction in virus induced cytopathic effect pre-treated with virus; format: toxicity, cell-based; details: dog, read-out: Selectivity Index
RAW264.7 [8] = test: Anti-inflammatory activity against mouse RAW264.7 cells assessed as reduction in LPS induced TNF alpha level at 1 ug/ml by ELISA method; format: functional; details: dose 1 µg/ml
RAW264.7 [9] = test: Anti-inflammatory activity against mouse RAW264.7 cells assessed as reduction in Influenza A virus (A/Puerto Rico/8/1934(H1N1)) induced TNF alpha level at 5 ug/ml by ELISA method; format: functional; details: dose 5 µg/ml
Influenza A virus [10] = test: Antiviral activity against Influenza A virus A/Aichi/2/68(H3N2) infected in MDCK cells incubated for 1 hr by MTT assay; format: functional, organism-based
RAW264.7 [11] = test: Anti-inflammatory activity against mouse RAW264.7 cells assessed as reduction in LPS induced TNF alpha level at 5 ug/ml by ELISA method; format: functional; details: dose 5 µg/ml
Influenza A virus [12] = test: Antiviral activity against Influenza A virus A/FM/1/47 infected in MDCK cells incubated for 1 hr by MTT assay; format: functional, organism-based; details: A/FM/1/47, MDCK
RAW264.7 [13] = test: Anti-inflammatory activity against mouse RAW264.7 cells assessed as reduction in Influenza A virus (A/Puerto Rico/8/1934(H1N1)) induced TNF alpha level at 1 ug/ml by ELISA method; format: functional; details: dose 1 µg/ml
Influenza B virus = test: Antiviral activity against Influenza B virus 699[…] clinical isolate infected in MDCK cells incubated for 1 hr by MTT assay; format: functional, organism-based
Influenza A virus [14] = test: Antiviral activity against Influenza A virus 699(H3) clinical isolate infected in MDCK cells incubated for 1 hr by MTT assay; format: functional, organism-based
Hemagglutinin = Hemagglutinin (Influenza A virus, UniProt B4URE7); test: Binding affinity to Influenza A Puerto Rico/8/1934/H1N1 hemagglutin assessed as dissociation constant by surface plasmon resonance assay
Chain of Hemagglutinin (B4URE7 whole entry): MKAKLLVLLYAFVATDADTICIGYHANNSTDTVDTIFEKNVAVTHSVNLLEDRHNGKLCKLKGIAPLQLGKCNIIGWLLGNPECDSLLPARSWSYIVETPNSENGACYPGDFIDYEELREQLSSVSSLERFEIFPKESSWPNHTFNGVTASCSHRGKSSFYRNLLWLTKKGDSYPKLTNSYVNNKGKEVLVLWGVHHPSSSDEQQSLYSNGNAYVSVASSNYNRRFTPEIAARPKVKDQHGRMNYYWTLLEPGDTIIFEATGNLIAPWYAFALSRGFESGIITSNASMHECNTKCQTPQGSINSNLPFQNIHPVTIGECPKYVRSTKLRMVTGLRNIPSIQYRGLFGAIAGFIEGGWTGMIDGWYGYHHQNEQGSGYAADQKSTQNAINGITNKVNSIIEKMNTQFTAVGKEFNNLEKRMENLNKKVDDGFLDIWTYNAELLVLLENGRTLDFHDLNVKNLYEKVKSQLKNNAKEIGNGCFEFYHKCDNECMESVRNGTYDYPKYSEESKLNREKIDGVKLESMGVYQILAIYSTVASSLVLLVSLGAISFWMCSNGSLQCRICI

Influenza A virus [15] = test: Antiviral activity against Influenza A virus (A/Puerto Rico/8/1934(H1N1)) infected in MDCK cells assessed as reduction in M1 mRNA level at 1 ug/ml measured after 24 hrs post infection by qRT-PCR analysis; format: functional, organism-based; details: dose 1.0 µg/ml
RAW264.7 [16] = test: Anti-inflammatory activity against mouse RAW264.7 cells assessed as reduction in LPS induced TNF alpha level at 5 ug/ml by qRT-PCR analysis; format: functional, cell-based; details: dose 5.0 µg/ml
Influenza A virus [17] = test: Antiviral activity against Influenza A virus (A/Puerto Rico/8/1934(H1N1)) infected in MDCK cells assessed as reduction in viral nucleoprotein expression level at 2.5 ug/ml pretreated with compound measured after 24 hrs post infection by indirect immunofluorescence assay; format: functional, organism-based; details: dose 2.5 µg/ml
RAW264.7 [18] = test: Anti-inflammatory activity against LPS induced mouse RAW264.7 cells assessed as suppression of NF kappa B expression level at 5 ug/ml by luciferase reporter assay; format: functional, cell-based; details: dose 5.0 µg/ml
Influenza A virus [19] = test: Antiviral activity against Influenza A virus (A/Puerto Rico/8/1934(H1N1)) infected in MDCK cells assessed as reduction in viral nucleoprotein expression level at 2.5 ug/ml pre-treated with virus measured after 24 hrs post infection by indirect immunofluorescence assay; format: functional, organism-based; details: dose 2.5 µg/ml
Mus musculus [20] = test: Antiviral activity against Kunming mouse infected with Influenza A virus (A/Puerto Rico/8/1934(H1N1)) assessed as increase in body weight at 5 mg/kg, ip measured after 15 days (reference value: 178.7%); format: functional; details: time 15 day
RAW264.7 [21] = test: Anti-inflammatory activity against mouse RAW264.7 cells assessed as reduction in LPS induced IL-6 level at 5 ug/ml by qRT-PCR analysis; format: functional, cell-based; details: dose 5.0 µg/ml
RAW264.7 [22] = test: Anti-inflammatory activity against mouse RAW264.7 cells assessed as reduction in influenza A virus induced TNF alpha level at 5 ug/ml by qRT- PCR; format: functional, cell-based; details: dose 5.0 µg/ml
Influenza A virus [23] = test: Antiviral activity against Influenza A virus (A/Puerto Rico/8/1934(H1N1)) infected in MDCK cells assessed as reduction in HA mRNA level at 1 ug/ml measured after 24 hrs post infection by qRT-PCR analysis; format: functional, organism-based; details: dose 1.0 µg/ml
RAW264.7 [24] = test: Anti-inflammatory activity against Influenza A virus (A/Puerto Rico/8/1934(H1N1)) induced mouse RAW264.7 cells assessed as suppression of NF kappa B expression level 5 ug/ml by luciferase reporter assay; format: functional, cell-based; details: dose 5.0 µg/ml
RAW264.7 [25] = test: Anti-inflammatory activity against mouse RAW264.7 cells assessed as reduction in influenza A virus induced IL-1 beta level at 5 ug/ml by qRT- PCR; format: functional, cell-based; details: dose 5.0 µg/ml
Influenza A virus [26] = test: Antiviral activity against Influenza A virus (A/Puerto Rico/8/1934(H1N1)) infected in MDCK cells assessed as reduction in viral nucleoprotein expression level at 2.5 ug/ml during infection measured after 24 hrs post infection by indirect immunofluorescence assay; format: functional, organism-based; details: dose 2.5 µg/ml
Mus musculus [27] = test: Antiviral activity against Kunming mouse infected with Influenza A virus (A/Puerto Rico/8/1934(H1N1)) assessed as survival rate at 5 mg/kg, ip administered once a day for 5 days relative to control; format: functional; details: 120 h, time 5 day
RAW264.7 [28] = test: Anti-inflammatory activity against mouse RAW264.7 cells assessed as reduction in influenza A virus induced IL-6 level at 5 ug/ml by qRT- PCR; format: functional, cell-based; details: dose 5.0 µg/ml
RAW264.7 [29] = test: Anti-inflammatory activity against mouse RAW264.7 cells assessed as reduction in LPS induced IL-1 beta level at 5 ug/ml by qRT-PCR analysis; format: functional, cell-based; details: dose 5.0 µg/ml

Compound	IC50 (Influenza A virus [1]) [nM]	CC50 [2] [nM]	IC50 (Influenza A virus [3]) [nM]	IC50 (Influenza A virus [4]) [nM]	IC50 (Influenza A virus [5]) [nM]	CC50 at 1 h [6] [nM]	selectivity ratio [7]	IC50 (Influenza A virus [10]) [nM]	IC50 (Influenza A virus [12]) [nM]	IC50 (Influenza B virus) [nM]	IC50 (Influenza A virus [14]) [nM]	other results
CC(C)CCC[C@@H](C)[C@H]1CC[C@H]2[C@@H]3CC=C4C[C@@H](OC(=O)CN[C@@H](CCCCN)C(=O)N[C@@H](CCCCN)C(=O)N[C@@H](Cc5c[nH]c6ccccc56)C(=O)N[C@@H](CCCCN)C(N)=O)CC[C@]4(C)[C@H]3CC[C@]12C	> 10000	39100	1610	> 10000	> 5000	44300	30.5					
CCOC(=O)c1c(CSc2ccccc2)n(C)c2cc(Br)c(O)c(CN(C)C)c12.Cl			360			32900	91.4	1180	1450	410	1560	Activity (RAW264.7 [8]): 320.5 pg/mL; Activity (RAW264.7 [9]): 294.9 pg/mL; Activity (RAW264.7 [11]): 400.5 pg/mL; Activity (RAW264.7 [13]): 206.5 pg/mL
NCCCC[C@H](NC(=O)Cc1ccc2ccccc2c1)C(=O)N[C@@H](CCCCN)C(=O)N[C@@H](Cc1c[nH]c2ccccc12)C(=O)N[C@@H](CCCCN)C(=O)NCCCC[C@H](NC(=O)[C@H](CCCCN)NC(=O)[C@H](Cc1c[nH]c2ccccc12)NC(=O)[C@H](CCCCN)NC(=O)[C@H](CCCCN)NC(=O)Cc1ccc2ccccc2c1)C(=O)NCCCC[C@H](NC(=O)[C@H](CCCCNC(=O)[C@H](CCCCN)NC(=O)[C@H](Cc1c[nH]c2ccccc12)NC(=O)[C@H](CCCCN)NC(=O)[C@H](CCCCN)NC(=O)Cc1ccc2ccccc2c1)NC(=O)[C@H](CCCCN)NC(=O)[C@H](Cc1c[nH]c2ccccc12)NC(=O)[C@H](CCCCN)NC(=O)[C@H](CCCCN)NC(=O)Cc1ccc2ccccc2c1)C(=O)NCC(=O)O (I: {Acetyl(2-naphthyl)}-KKWKK([Lys-Trp-Lys-Lys-Acetyl(2-naphthyl)])KG-OH / II: {Acetyl(2-naphthyl)}-KKWKK([Lys-Trp-Lys-Lys-Acetyl(2-naphthyl)]); amide I:6-II:C)	340	4410	190	7690	240	6670	35.5	330	230	220	210	Kd (Hemagglutinin): 0.00742 nM; Activity (Influenza A virus [15]): Active; Activity (RAW264.7 [16]): Active; Activity (Influenza A virus [17]): Active; Activity (RAW264.7 [18]): Active; Activity (Influenza A virus [19]): Active; Activity (Mus musculus [20]): 135.8%; Activity (RAW264.7 [21]): Active; Activity (RAW264.7 [22]): Active; Activity (Influenza A virus [23]): Active; Activity (RAW264.7 [24]): Active; Activity (RAW264.7 [25]): Active; Activity (Influenza A virus [26]): Active; survival at 5 mg/kg (Mus musculus [27]): 40%; Activity (RAW264.7 [28]): Active; Activity (RAW264.7 [29]): Active
NCCCC[C@H](NC(=O)[C@H](Cc1c[nH]c2ccccc12)NC(=O)[C@H](CCCCN)NC(=O)[C@H](CCCCN)NC(=O)Cc1ccc2ccccc2c1)C(=O)O ({Acetyl(2-naphthyl)}-KKWK-OH)		200000	4040			> 200000						
